Data: patent US11213499B1, “Use of 3,3′-diselenodipropionic acid (DSePA) as an anticancer agent” (Secretary, Department of Atomic Energy, priority 2020, dated 2022)

Tested on: CHO (Chinese Hamster Ovary (normal))
Experiment: SRB/MTT assay, normal CHO cells
Type: cell-based
Description: The anticancer effect of DSePA was evaluated using a panel of twenty-five human cancer cell lines of different tissue origins. Cells were treated with the increasing concentrations (0.1-100 μM) of DSePA for 48 h and viability was monitored by (Sulforhodamine B) SRB assay or MTT assay.
Cell culture and DSePA synthesis—DSePA was synthesized and characterized as described in our previous reports. Cell lines were cultured in growth medium (DMEM/RPMI) supplemented with 10% FBS, 100 U/ml penicillin and 100 μg/ml streptomycin at 37° C. in a humidified 5% CO2 environment. The stock solution of DSePA was prepared fresh in cell culture medium and diluted with the same to achieve the desired concentrations.
SRB/MTT Assay—To evaluate the anti-proliferative effect of DSePA, Cells (˜5×10^3) suspended in 100 μl of complete culture medium were seeded in each well of 96 well plates. The cells were allowed to attach and grow for 24 h, treated with desired concentrations of DSePA dissolved in culture medium for 48 h and then processed for SRB/MTT assay as described in literature. The percentage (%) cytotoxicity was calculated from the decrease in absorbance as compared to that of control group.

In the case of `O=C(O)CC[Se][Se]CCC(=O)O` [DSePA, 3,3′-diselenodipropionic acid], the “toxicity in normal cell types” value (CHO, 0.1-100 μM, 48 h) is reported as “did not show toxicity” and the GI50 (Cricetulus griseus, CHO normal cells, 48 hours treatment, SRB/MTT assay, read-out: GI50 (Concentration of drug causing 50% inhibition of cell growth)) is reported as over 100 µM.
